Experiment: Log of liquid dish neat product liquid-air partition coefficient
Format: physicochemical
Settings: for Log of liquid dish neat product liquid-air partition coefficient (Comment Code K/L): code letter within the Comment Code cell

| SMILES | Log of liquid dish neat product liquid-air partition coefficient (Comment Code K/L) | Comment Code: Log of liquid dish neat product liquid-air partition coefficient |
| --- | --- | --- |
| CC(C)=CCCC(C)=CCC1CCCC1=O (racemic) [Material 307] | K (Log of liquid dish neat product liquid-air partition coefficient greater than or equal to 7) | – |
| C=CC(C)CCC=C(C)CCC=O (racemic) [Material 358] | K (Log of liquid dish neat product liquid-air partition coefficient greater than or equal to 7) | – |
| CCCCCCC#CC(OC)OC [Material 3] | K (Log of liquid dish neat product liquid-air partition coefficient greater than or equal to 7) | – |
| Cc1ccc(C(C)(C)O)cc1 [Material 4] | K (Log of liquid dish neat product liquid-air partition coefficient greater than or equal to 7) | – |
| C=C1C2CCC(C)(C)C1CCC(OC)C2 (stereo not shown) [Material 7] | K (Log of liquid dish neat product liquid-air partition coefficient greater than or equal to 7) | K (Log of liquid dish neat product liquid-air partition coefficient greater than or equal to 7) |
| COC1CCCCCCCCCCC1 [Material 9] | K (Log of liquid dish neat product liquid-air partition coefficient greater than or equal to 7) | – |
| COC1(OC)CCCCCCCCCCC1 [Material 10] | K (Log of liquid dish neat product liquid-air partition coefficient greater than or equal to 7) | – |
| CCCCCCCCCC/C=C\C#N [Material 11] | K (Log of liquid dish neat product liquid-air partition coefficient greater than or equal to 7) | – |
| CCOC1CCC(C(C)(C)CC)CC1 (stereo not shown) [Material 12] | – | K (Log of liquid dish neat product liquid-air partition coefficient greater than or equal to 7) |
| CC1(O)CCOC2(CCCCC2)C1 (stereo not shown) [Material 16] | K (Log of liquid dish neat product liquid-air partition coefficient greater than or equal to 7) | – |
| Cc1ccc2c(c1)OCC(=O)CO2 [Material 17] | K (Log of liquid dish neat product liquid-air partition coefficient greater than or equal to 7) | – |
| COc1ccccc1-c1ccccc1 [Material 22] | K (Log of liquid dish neat product liquid-air partition coefficient greater than or equal to 7) | – |
| CC1C(C)(C)C2=C(C3OC(C)(C)OC3CC2)C1(C)C (stereo not shown) [Material 23] | K (Log of liquid dish neat product liquid-air partition coefficient greater than or equal to 7) | K (Log of liquid dish neat product liquid-air partition coefficient greater than or equal to 7) |
| CC(C)C1OC2(CCCC2)OCC1(C)C (stereo not shown) [Material 25] | K (Log of liquid dish neat product liquid-air partition coefficient greater than or equal to 7) | – |
| COc1ccccc1C=CC=O [Material 26] | – | K (Log of liquid dish neat product liquid-air partition coefficient greater than or equal to 7) |
| CCCCCCCCOC(=O)c1ccco1 [Material 28] | K (Log of liquid dish neat product liquid-air partition coefficient greater than or equal to 7) | – |
| C=CC(=C)CCCC(C)(C)O [Material 34] | K (Log of liquid dish neat product liquid-air partition coefficient greater than or equal to 7) | – |
| C=CC(=C)CCCC(C)(C)OC(C)=O [Material 35] | K (Log of liquid dish neat product liquid-air partition coefficient greater than or equal to 7) | – |
| CCCCCCCCCCCCCC=O [Material 36] | K (Log of liquid dish neat product liquid-air partition coefficient greater than or equal to 7) | – |
| C=CCc1cc(OC)c2c(c1)OCO2 [Material 37] | K (Log of liquid dish neat product liquid-air partition coefficient greater than or equal to 7) | – |
| CCCCCCCCCCCCCC#N [Material 38] | K (Log of liquid dish neat product liquid-air partition coefficient greater than or equal to 7) | – |
| CC1=CC(C)C2C(CCC(C)(C)C2O)C1 (stereo not shown) [Material 39] | K (Log of liquid dish neat product liquid-air partition coefficient greater than or equal to 7) | K (Log of liquid dish neat product liquid-air partition coefficient greater than or equal to 7) |
| C=CC(C)=CCCC(C)(C)O [Material 42] | K (Log of liquid dish neat product liquid-air partition coefficient greater than or equal to 7) | – |
| C=CC(C)=CCCC(C)(C)O [Material 43] | K (Log of liquid dish neat product liquid-air partition coefficient greater than or equal to 7) | – |
| CC(=O)OCCC1=CCC2CC1C2(C)C (stereo not shown) [Material 47] | K (Log of liquid dish neat product liquid-air partition coefficient greater than or equal to 7) | – |
| C=C(C)[C@@H]1CCC2=CC(=O)C[C@@H](C)[C@]2(C)C1 [Material 48] | K (Log of liquid dish neat product liquid-air partition coefficient greater than or equal to 7) | K (Log of liquid dish neat product liquid-air partition coefficient greater than or equal to 7) |

| SMILES | Log of liquid dish neat product liquid-air partition coefficient (Comment Code K/L) | Comment Code: Log of liquid dish neat product liquid-air partition coefficient |
| --- | --- | --- |
| CC1CC=CCCCCCCCC(=O)OCC1 (stereo not shown) [Material 52] | K (Log of liquid dish neat product liquid-air partition coefficient greater than or equal to 7) | – |
| CCNC(=O)C1CC(C)CCC1C(C)C (stereo not shown) [Material 57] | K (Log of liquid dish neat product liquid-air partition coefficient greater than or equal to 7) | – |
| CC(C)=CCC/C(C)=C\COC=O [Material 59] | – | K (Log of liquid dish neat product liquid-air partition coefficient greater than or equal to 7) |
| CC(=O)c1oc2ccccc2c1C [Material 61] | K (Log of liquid dish neat product liquid-air partition coefficient greater than or equal to 7) | – |
| C=CC(C)(O)CCC=C(C)CCC=C(C)C (stereo not shown) [Material 63] | K (Log of liquid dish neat product liquid-air partition coefficient greater than or equal to 7) | – |
| CC(C)=CCC/C(C)=C\CO [Material 64] | K (Log of liquid dish neat product liquid-air partition coefficient greater than or equal to 7) | – |
| CC1=CC2(C=CC(C)O2)C(C(C)C)CC1 (stereo not shown) [Material 68] | K (Log of liquid dish neat product liquid-air partition coefficient greater than or equal to 7) | – |
| CC1=CCC(C(C)CC2CCCC2=O)CC1 (stereo not shown) [Material 69] | K (Log of liquid dish neat product liquid-air partition coefficient greater than or equal to 7) | – |
| CC(=O)/C=C/C1C(C)CCC(C)C1(C)C (stereo not shown) [Material 71] | K (Log of liquid dish neat product liquid-air partition coefficient greater than or equal to 7) | – |
| CC(=O)OCC1CC=C(CCC=C(C)C)CC1 (stereo not shown) [Material 74] | K (Log of liquid dish neat product liquid-air partition coefficient greater than or equal to 7) | – |
| CC1CCCCCCCCCCCCC(=O)C1 (stereo not shown) [Material 79] | K (Log of liquid dish neat product liquid-air partition coefficient greater than or equal to 7) | – |
| CC1/C=C/CCCCCCCCCCC(=O)C1 (stereo not shown) [Material 80] | K (Log of liquid dish neat product liquid-air partition coefficient greater than or equal to 7) | – |
| CCC(C)(O)/C=C/C=C(C)C (stereo not shown) [Material 81] | – | K (Log of liquid dish neat product liquid-air partition coefficient greater than or equal to 7) |
| CC(O)C(C)Cc1ccccc1 (stereo not shown) [Material 82] | K (Log of liquid dish neat product liquid-air partition coefficient greater than or equal to 7) | – |
| CC(C)C1CCC(C(C)O)CC1 (stereo not shown) [Material 83] | K (Log of liquid dish neat product liquid-air partition coefficient greater than or equal to 7) | – |
| CCC(=O)OC(C)c1ccccc1 (stereo not shown) [Material 96] | – | K (Log of liquid dish neat product liquid-air partition coefficient greater than or equal to 7) |
| CC(O)CCc1ccccc1 (stereo not shown) [Material 98] | K (Log of liquid dish neat product liquid-air partition coefficient greater than or equal to 7) | – |
| CCCCCCCCCC(C)C(OC)OC (stereo not shown) [Material 101] | K (Log of liquid dish neat product liquid-air partition coefficient greater than or equal to 7) | – |
| CCCCCCCCCC(C)C=O (stereo not shown) [Material 103] | K (Log of liquid dish neat product liquid-air partition coefficient greater than or equal to 7) | – |
| CCCCCCCCCCCCCC(=O)OC [Material 104] | K (Log of liquid dish neat product liquid-air partition coefficient greater than or equal to 7) | – |
| CCCCCCC(CO)C(C)=O (stereo not shown) [Material 106] | K (Log of liquid dish neat product liquid-air partition coefficient greater than or equal to 7) | – |
| CC=Cc1ccc(OC)c(OC)c1 [Material 108] | K (Log of liquid dish neat product liquid-air partition coefficient greater than or equal to 7) | – |
| CCCCCCCCCCCCCCCC(=O)OC [Material 109] | K (Log of liquid dish neat product liquid-air partition coefficient greater than or equal to 7) | – |
| C=CCc1ccc(OC)c(OC)c1 [Material 110] | K (Log of liquid dish neat product liquid-air partition coefficient greater than or equal to 7) | – |
| CCC=CCC1C(=O)CCC1CC(=O)OC (stereo not shown) [Material 112] | K (Log of liquid dish neat product liquid-air partition coefficient greater than or equal to 7) | – |
